Experimental data taken from US20080021026A1, “BENZOTHIOPHENE INHIBITORS OF RHO KINASE” (priority 2006, published 2008).
Where two headings read alike, the source gives them in different places.

Key:
[1] = target: T1, recombinant N-terminal GST-tagged human Rho kinase 1 (ROCK1, amino acids 1-535) (Homo sapiens, UniProt Q13464); assay: In vitro Rho kinase assay (luciferase-based ATP consumption), ROCK1; type: biochemical
T1 construct: ROCK1, amino acids 1-535; purchased Invitrogen Inc. PV-3691
Procedure, shortened: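 GST-ROCK1 (aa 1-535) at 0.82 μg/ml with 100 μg/ml S6 peptide and 3 µM ATP in Tris pH 7.5 buffer with MgCl2, CaCl2, EGTA, BSA; compound added after reaction start, 2 h at 30 °C. Remaining ATP read by luciferase luminescence; efficacy as percent of H-1152P positive control.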

[2] = target: T2, recombinant N-terminal GST-tagged human Rho kinase 2 (ROCK2, amino acids 1-552) (Homo sapiens, UniProt O75116); assay: In vitro Rho kinase assay (luciferase-based ATP consumption), ROCK2; type: biochemical
T2 construct: ROCK2, amino acids 1-552; purchased Invitrogen Inc. PV3759
Procedure, shortened: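 GST-ROCK2 (aa 1-552, 0.82 μg/ml) with 100 μg/ml S6 peptide and 3 µM ATP in Tris pH 7.5 buffer with MgCl2/CaCl2/EGTA/BSA, compound added just after reaction start, 2 h at 30 °C. Remaining ATP read by luciferase luminescence. Efficacy expressed as percentage of H-1152P positive control.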

[3] = recombinant GST-tagged human ROCK1, luciferase-based ATP consumption, read-out: ROCK1 IC50
[4] = recombinant GST-tagged human ROCK2, luciferase-based ATP consumption, read-out: ROCK2 IC50

T1 sequence (Q13464 1-535): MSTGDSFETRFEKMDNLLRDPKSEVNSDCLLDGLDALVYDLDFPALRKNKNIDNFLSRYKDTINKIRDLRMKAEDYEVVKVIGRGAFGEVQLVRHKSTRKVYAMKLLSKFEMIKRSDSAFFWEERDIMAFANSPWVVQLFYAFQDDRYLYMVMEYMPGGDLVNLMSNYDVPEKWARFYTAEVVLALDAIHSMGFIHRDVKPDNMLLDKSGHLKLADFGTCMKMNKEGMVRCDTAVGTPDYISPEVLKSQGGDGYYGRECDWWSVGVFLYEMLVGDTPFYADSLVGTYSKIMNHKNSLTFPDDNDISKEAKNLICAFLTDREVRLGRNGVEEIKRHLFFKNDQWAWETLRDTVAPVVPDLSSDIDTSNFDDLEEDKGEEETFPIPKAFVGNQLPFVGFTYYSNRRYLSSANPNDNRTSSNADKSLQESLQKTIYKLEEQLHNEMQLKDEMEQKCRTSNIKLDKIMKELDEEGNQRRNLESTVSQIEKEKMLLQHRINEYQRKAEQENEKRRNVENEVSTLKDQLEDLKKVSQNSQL
T2 sequence (O75116 1-552): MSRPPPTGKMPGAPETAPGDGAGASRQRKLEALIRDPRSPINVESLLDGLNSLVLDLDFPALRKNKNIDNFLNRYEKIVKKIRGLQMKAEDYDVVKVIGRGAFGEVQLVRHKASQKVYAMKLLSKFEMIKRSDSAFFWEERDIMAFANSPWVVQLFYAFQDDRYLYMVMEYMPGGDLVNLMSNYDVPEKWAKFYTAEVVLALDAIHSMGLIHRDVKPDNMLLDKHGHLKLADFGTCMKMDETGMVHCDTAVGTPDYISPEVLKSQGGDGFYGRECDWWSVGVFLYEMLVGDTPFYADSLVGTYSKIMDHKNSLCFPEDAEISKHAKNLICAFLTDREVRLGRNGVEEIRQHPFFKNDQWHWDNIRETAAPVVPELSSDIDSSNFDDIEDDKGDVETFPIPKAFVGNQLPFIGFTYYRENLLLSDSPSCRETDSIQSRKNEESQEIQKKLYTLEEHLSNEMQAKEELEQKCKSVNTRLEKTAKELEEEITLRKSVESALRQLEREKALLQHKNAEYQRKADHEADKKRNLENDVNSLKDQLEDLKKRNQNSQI

IC50 [1, 3] [µM] | IC50 [2, 4] [µM] | Compound | IC50 ([1]; ROCK1 IC50, recombinant GST-tagged human ROCK1, luciferase-based ATP consumption) [µM] | IC50 ([2]; ROCK2 IC50, recombinant GST-tagged human ROCK2, luciferase-based ATP consumption) [µM]
< 5 | < 5 | Cc1c(-c2ccnc(N)n2)sc2ccc(CNC(=O)c3cccc4ccccc34)cc12 [Example 189, Cc1c(sc2ccc(CNC(═O)c3cccc4ccccc34)cc12)-c5ccnc(N)n5] |  | 
< 5 | < 5 | COc1cc(NC(=O)c2sc3nc(-c4ccncc4)ccc3c2N)cc(OC)c1OC [Example 94] |  | 
< 5 | < 5 | CCC(C(=O)NCc1ccc2sc(-c3ccnc(N)n3)c(C)c2c1)c1ccccc1 (centres unmarked) [Example 169, CCC(C(═O)NCc1ccc2sc(c(C)c2c1)-c3ccnc(N)n3)c4ccccc4] |  | 
< 5 | < 5 | Cc1c(-c2ccnc(N)n2)oc2ccc(Cc3cccc(O)c3)cc12 [Example 92, 3-((2-(2-Aminopyrimidin-4-yl)-3-methylbenzofuran-5-yl)methyl)phenol] |  | 
> 5 | < 5 | Cc1c(-c2ccnc(N)n2)sc2ccc(CNC(=O)c3cc([N+](=O)[O-])ccc3O)cc12 [Example 228, Cc1c(sc2ccc(CNC(═O)c3cc(ccc3O)[N+]([O−])═O)cc12)-c4ccnc(N)n4] |  | 
> 5 | < 5 | COc1ccccc1CC(=O)NCc1ccc2sc(-c3ccnc(N)n3)c(C)c2c1 [Example 177, COc1ccccc1CC(═O)NCc2ccc3sc(c(C)c3c2)-c4ccnc(N)n4] |  | 
< 5 | < 5 | Cc1c(-c2ccnc(N)n2)sc2ccc(CNC(=O)Cc3ccc(C(F)(F)F)cc3)cc12 [Example 273, Cc1c(sc2ccc(CNC(═O)Cc3ccc(cc3)C(F)(F)F)cc12)-c4ccnc(N)n4] |  | 
> 5 | < 5 | COc1cc(C(=O)NCc2ccc3sc(-c4ccnc(N)n4)c(C)c3c2)cc(OC)c1O [Example 260, COc1cc(cc(OC)c1O)C(═O)NCc2ccc3sc(c(C)c3c2)-c4ccnc(N)n4] |  | 
< 5 | > 5 | Cc1c(-c2ccnc(N)n2)sc2ccc(CNC(=O)C(Cc3ccccc3)NC(=O)OC(C)(C)C)cc12 (centres unmarked) [Example 325, Cc1c(sc2ccc(CNC(═O)[C](Cc3ccccc3)NC(═O)OC(C)(C)C)cc12)-c4ccnc(N)n4] |  | 
> 5 | < 5 | Cc1c(-c2ccnc(N)n2)sc2ccc(CNC(=O)c3cccc(O)c3O)cc12 [Example 143, Cc1c(sc2ccc(CNC(═O)c3cccc(O)c3O)cc12)-c4ccnc(N)n4] |  | 
> 5 | < 5 | Cc1c(-c2ccnc(N)n2)sc2ccc(CNC(=O)c3ccc4ncccc4c3)cc12 [Example 192, Cc1c(sc2ccc(CNC(═O)c3ccc4ncccc4c3)cc12)-c5ccnc(N)n5] |  | 
< 5 | < 5 | COc1nccc(Nc2ccc3sc(-c4ccnc(N)n4)c(C)c3c2)n1 [Example 74, 4-(5-(2-Methoxypyrimidin-4-ylamino)-3-methylbenzo[b]thiophen-2-yl)pyrimidin-2-amine] |  | 
> 5 | < 5 | Cc1c(-c2ccnc(N)n2)sc2ccc(CNC(=O)c3ccncc3)cc12 [Example 110, Cc1c(sc2ccc(CNC(═O)c3ccncc3)cc12)-c4ccnc(N)n4] |  | 
> 5 | < 5 | Cc1cc(C)c(C(=O)NCc2ccc3sc(-c4ccnc(N)n4)c(C)c3c2)c(C)c1 [Example 170, Cc1cc(C)c(c(C)c1)C(═O)NCc2ccc3sc(c(C)c3c2)-c4ccnc(N)n4] |  | 
> 5 | < 5 | Cc1c(-c2ccnc(N)n2)sc2ccc(CNC(=O)C=Cc3ccc(Cl)cc3)cc12 [Example 224, Cc1c(sc2ccc(CNC(═O)C═Cc3ccc(Cl)cc3)cc12)-c4ccnc(N)n4] |  | 
> 5 | > 5 | Cc1c(-c2ccnc3[nH]ccc23)sc2ccc(Cl)cc12 [Example 6, 4-(5-Chloro-3-methylbenzo[b]thiophen-2-yl)-1H-pyrrolo[2,3-b]pyridine] |  | 
> 5 | < 5 | COc1cc(C(=O)NCc2ccc3sc(-c4ccnc(N)n4)c(C)c3c2)cc(OC)c1OC [Example 279, COc1cc(cc(OC)c1OC)C(═O)NCc2ccc3sc(c(C)c3c2)-c4ccnc(N)n4] |  | 
< 5 | < 5 | Cc1c(-c2ccnc(N)n2)sc2ccc(Nc3ccccc3)cc12 [Example 69, 4-(3-Methyl-5-(phenylamino)benzo[b]thiophen-2-yl)pyrimidin-2-amine] |  | 
< 5 | < 5 | Cc1c(-c2ccnc(N)n2)sc2ccc(CNC(=O)c3ccc(C(F)(F)F)cc3[N+](=O)[O-])cc12 [Example 313, Cc1c(sc2ccc(CNC(═O)c3ccc(cc3[N+]([O−])═O)C(F)(F)F)cc12)-c4ccnc(N)n4] |  | 

IC50 [1, 3] [µM] | IC50 [2, 4] [µM] | Compound | IC50 ([1]; ROCK1 IC50, recombinant GST-tagged human ROCK1, luciferase-based ATP consumption) [µM] | IC50 ([2]; ROCK2 IC50, recombinant GST-tagged human ROCK2, luciferase-based ATP consumption) [µM]
> 5 | < 5 | Cc1c(-c2ccnc(N)n2)sc2ccc(CNC(=O)c3cccnc3)cc12 [Example 109, Cc1c(sc2ccc(CNC(═O)c3cccnc3)cc12)-c4ccnc(N)n4] |  | 
> 5 | < 5 | Cc1cccc(C(=O)NCc2ccc3sc(-c4ccnc(N)n4)c(C)c3c2)c1O [Example 139, Cc1cccc(C(═O)NCc2ccc3sc(c(C)c3c2)-c4ccnc(N)n4)c1O] |  | 
< 5 | < 5 | Cc1c(-c2ccnc(N)n2)sc2ccc(CNC(=O)c3cc4ccccc4s3)cc12 [Example 202, Cc1c(sc2ccc(CNC(═O)c3cc4ccccc4s3)cc12)-c5ccnc(N)n5] |  | 
< 5 | < 5 | Cc1c(-c2ccnc(N)n2)oc2ccccc12 [Example 3, 4-(3-Methylbenzofuran-2-yl)pyrimidin-2-amine] |  | 
> 5 | < 5 | Cc1c(-c2ccnc(N)n2)sc2ccc(CNC(=O)c3cccc(Br)c3)cc12 [Example 262, Cc1c(sc2ccc(CNC(═O)c3cccc(Br)c3)cc12)-c4ccnc(N)n4] |  | 
< 5 | < 5 | CCC(=O)C(=O)NCc1ccc2sc(-c3ccnc(N)n3)c(C)c2c1 [Example 99, CCC(═O)C(═O)NCc1ccc2sc(c(C)c2c1)-c3ccnc(N)n3] |  | 
> 5 | > 5 | Cc1c(-c2ccnc(N)n2)sc2ccc(CNC(=O)C(C(C)C)N(C)C(=O)OC(C)(C)C)cc12 (centres unmarked) [Example 312, CC(C)C(N(C)C(═O)OC(C)(C)C)C(═O)NCc1ccc2sc(c(C)c2c1)-c3ccnc(N)n3] |  | 
< 5 | < 5 | Cc1c(-c2ccnc(N)n2)sc2ccc(Br)cc12 [Example 13, 4-(5-Bromo-3-methylbenzo[b]thiophen-2-yl)pyrimidin-2-amine] |  | 
< 5 | < 5 | Cc1c(-c2ccnc(N)n2)sc2ccc(Cc3cccc(OCCN4CCOCC4)c3)cc12 [Example 29, 4-(3-Methyl-5-(3-(2-morpholinoethoxy)benzyl)benzo[b]thiophen-2-yl)pyrimidin-2-amine] |  | 
< 5 | < 5 | Cc1c(-c2ccnc(N)n2)sc2ccc(Sc3cccc(O)c3)cc12 [Example 84, 3-(2-(2-Aminopyrimidin-4-yl)-3-methylbenzo[b]thiophen-5-ylthio)phenol] |  | 
< 5 | < 5 | Cc1c(-c2ccnc(N)n2)sc2ccc(CNC(=O)COc3ccccc3C=O)cc12 [Example 207, Cc1c(sc2ccc(CNC(═O)COc3ccccc3C═O)cc12)-c4ccnc(N)n4] |  | 
 |  | Cc1c(-c2ccnc(N)n2)sc2ccc(CNC(=O)c3cccc(Cl)c3Cl)cc12 [Example 245, Cc1c(sc2ccc(CNC(═O)c3cccc(Cl)c3Cl)cc12)-c4ccnc(N)n4] | > 5 | < 5
< 5 | < 5 | Cc1c(-c2ccnc(N)n2)sc2ccc(CNC(=O)C3=CCCC3)cc12 [Example 104, Cc1c(sc2ccc(CNC(═O)C3═CCCC3)cc12)-c4ccnc(N)n4] |  | 
< 5 | > 5 | Cc1c(-c2ccnc(N)n2)sc2ccc(CNC(=O)c3cc(Cl)c(O)c(Cl)c3)cc12 [Example 275, Cc1c(sc2ccc(CNC(═O)c3cc(Cl)c(O)c(Cl)c3)cc12)-c4ccnc(N)n4] |  | 
< 5 | < 5 | Cc1c(-c2ccnc(N)n2)sc2ccc(CNC(=O)c3cc(F)c(Cl)cc3F)cc12 [Example 253, Cc1c(sc2ccc(CNC(═O)c3cc(F)c(Cl)cc3F)cc12)-c4ccnc(N)n4] |  | 
< 5 | < 5 | Cc1c(-c2ccnc(N)n2)sc2ccc(CNC(=O)c3ccccc3C(=O)c3ccc(O)cc3)cc12 [Example 316, Cc1c(sc2ccc(CNC(═O)c3ccccc3C(═O)c4ccc(O)cc4)cc12)-c5ccnc(N)n5] |  | 
> 5 | > 5 | Cc1c(-c2cccnc2N)sc2ccc(Cl)cc12 [Example 11, 3-(5-Chloro-3-methylbenzo[b]thiophen-2-yl)pyridin-2-amine] |  | 
> 5 | < 5 | Cc1c(-c2ccnc(N)n2)sc2ccc(CNC(=O)C3CCCCC3)cc12 [Example 115, Cc1c(sc2ccc(CNC(═O)C3CCCCC3)cc12)-c4ccnc(N)n4] |  | 

Compound | IC50 [1, 3] [µM] | IC50 [2, 4] [µM] | IC50 ([1]; ROCK1 IC50, recombinant GST-tagged human ROCK1, luciferase-based ATP consumption) [µM] | IC50 ([2]; ROCK2 IC50, recombinant GST-tagged human ROCK2, luciferase-based ATP consumption) [µM]
CCCOc1ccc(C(=O)NCc2ccc3sc(-c4ccnc(N)n4)c(C)c3c2)cc1 [Example 213, CCCOc1ccc(cc1)C(═O)NCc2ccc3sc(c(C)c3c2)-c4ccnc(N)n4] | < 5 | > 5 |  | 
CC(=O)c1ccc(C(=O)NCc2ccc3sc(-c4ccnc(N)n4)c(C)c3c2)cc1 [Example 162, CC(═O)c1ccc(Cc1)C(═O)NCc2ccc3sc(c(C)c3c2)-c4ccnc(N)n4] | > 5 | < 5 |  | 
COc1ccc(C(=O)NCc2ccc3sc(-c4ccnc(N)n4)c(C)c3c2)cc1 [Example 138, COc1ccc(cc1)C(═O)NCc2ccc3sc(c(C)c3c2)-c4ccnc(N)n4] | > 5 | < 5 |  | 
